Assay results published in PMC9282638, “A Suite of Activity-Based Probes To Dissect the KLK Activome in Drug-Resistant Prostate Cancer” (Journal of the American Chemical Society, 2021).

Assays:
KLK14 [1] = target: T1, KLK14 (Homo sapiens, UniProt Q9P0G3); assay: Inhibition of KLK14 after incubation with 50 µM probe (Figure S8); assay type: biochemical; settings: 30 minutes
T1 construct: purchased R&D Systems
T1 sequence (Q9P0G3 25-251): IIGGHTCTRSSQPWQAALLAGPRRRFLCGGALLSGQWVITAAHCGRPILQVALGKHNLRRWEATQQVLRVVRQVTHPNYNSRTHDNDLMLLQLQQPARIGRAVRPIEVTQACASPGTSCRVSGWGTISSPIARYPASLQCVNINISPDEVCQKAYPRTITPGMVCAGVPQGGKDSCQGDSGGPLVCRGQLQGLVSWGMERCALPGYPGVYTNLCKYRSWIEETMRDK

LNCaP-K14 cells = assay: Transwell cell migration assay; assay type: cell-based, human; settings: 1 μM ABP, 24 h; KLK14 expression induced with Dox, 10 nM DHT
Experimental: Figure 6 Dissecting the KLK activome in LNCaP cells. (A) Structures of fluorescent ABPs 42, 20, and 43 for KLK2, KLK3, and KLK14, respectively. (B) KLK activity profiling by in-gel fluorescence of conditioned media obtained from LNCaP-WT, LNCaP-mK14, and LNCaP-K14 cells following treatment with DHT (10 nM), Dox (100 ng/mL), and the appropriate biotinylated ABP using fluorescent ABPs 20, 42 and 43. See Figure S26 for blot and gel quantification. (C) Assessment of KLK activity inhibition on LNCaP cell migration. LNCaP-K14 cells were cultured in serum-free RPMI media supplemented with 10 nM DHT ± Dox (100 ng/mL) for 24 h. Cells were added to transwell inserts (100 000 cells in 100 μL of serum-free RPMI), and after 4 h the appropriate ABP was added. Cultures were incubated for a further 24 h before the number of migrating cells was quantified. […]
each library member was 50 μM and the total reaction volume was 50 μL. The excitation wavelength was 355 nm, and the emission wavelength was 460 nm. An amount of 1 μL of each HyCoSuL peptide was added into a well in a 96-well plate containing 24 μL of KLK buffer.
Next, 25 μL of the active KLK enzyme was added to each well and substrate hydrolysis was recorded in kinetic mode at RT for at least 10 min. The linear portion of each progress curve was used to calculate relative fluorescence units per second (RFUs-1). […] Specificity was calculated by normalizing RFUs-1 to the highest value, which was set at 100 %. […]
(§1) Determination of kcat/KM: The KLK2 substrate and KLK14 substrate were serially diluted in the appropriate KLK assay buffer and 25 μL was added to the wells of a 96-well plate. Next, 25 μL of KLK2 (1.5 nM) or KLK14 (75 pM) was added to each well containing the substrate and the enzyme-substrate reaction was monitored for at least 10 min. The linear portion of each progress curve was used to calculate relative fluorescence units per second (RFUs-1).
KM, kcat, and kcat/KM parameters were determined by nonlinear regression in GraphPad Prism 5 (GraphPad Software). […]

KLK14 [2] = target: T1, KLK14; assay: Determination of kinact/KI, fluorogenic substrate kinetic assay; assay type: biochemical; settings: for kinact/KI: mean ± SEM (N = 3)
KLK2 = target: T2, KLK2 (Homo sapiens, UniProt P20151); assay: as above; assay type: biochemical; settings: for kinact/KI: mean ± SEM (N = 3)
T2 construct: purchased R&D Systems
Text: 1.1 Chemicals and Reagents
All chemicals and reagents were purchased from commercial suppliers and used without further purification. Rink Amide resin (100-200 mesh) and 2-Chlorotrityl chloride resin (100-200 mesh, 1% DVB) were obtained from Merck. Natural Fmoc-amino acids were obtained from AGTC Bioproducts Ltd. Unnatural Fmoc-amino acids were obtained from Fluorochem, Alfa Aesar, VWR, Merck, Iris Biotech, Bachem or Sigma Aldrich. Culture media, fetal bovine serum, trypsin, antibiotics and chemicals required for differentiation of osteoprogenitor cells were obtained from Sigma Aldrich, Gibco or Invitrogen. Amicon 3 KDa Centrifugal filter units were obtained from Merck. Recombinant human KLK2 and KLK14 were obtained from R&D Systems and activated using the supplier’s protocol. All remaining chemical reagents were obtained from VWR, Sigma Aldrich or Merck. […]
Fluorescent plate-based enzymatic assays were carried out using an Envision 2104 Multilabel Plate Reader (PerkinElmer) operating in kinetic mode for a minimum of 20 min with excitation/emission […]
Specificity […]
was calculated by normalizing RFUs-1 to the highest value, which was set at 100 %.
Calculations were made in GraphPad Prism 5.
as §1
KM, kcat, and kcat/KM parameters were determined by nonlinear regression in GraphPad Prism 5 (GraphPad Software). Each experiment was repeated three times and the results are presented as an average ± SEM.
Determination of kinact/KI: Under pseudo-first order conditions, a fixed amount of KLK2 (1.5 nM) or KLK14 (37 pM) was incubated with peptidyl-DPP analogue at different concentrations in the presence of 5 µM of substrate. The pseudo first-order rate constant, kobs, was calculated for each probe concentration using non-linear regression analysis in GraphPad Prism 5. The obtained values were plotted against probe concentration to afford the apparent second order rate constant kinact(app)/KI. The absolute value of the second order rate constant was then obtained by adjusting for the substrate competition factor (1 + [S]/Km), where S is the concentration of substrate in the assay and KM is the Michaelis Menten constant for that substrate/enzyme reaction.
2.5 Cell Migration Assays
Cell migration: The assay was performed as per the manufacturer’s protocol (https://www.corning.com/catalog/cls/documents/protocols/an_Chemotaxis_protocol.pdf).
Briefly, LNCaP-WT, LNCaP-mK14 and LNCaP-K14 cells were grown to 80% confluency in RPMI media supplemented with 5 % FBS. The media was then aspirated, the cells were washed with 2 mL PBS (3*) and incubated with serum-free RPMI (without phenol red) supplemented with 10 nM DHT ± 100 ng/mL Dox for 24 h. Cells were trypsinized, washed twice with serum-free RPMI and resuspended in serum-free RPMI. 100,000 cells in 100 µL of serum-free RPMI was then added to the transwell inserts placed in a 24-well plate (Corning […]
Figure S15: KLK2 and KLK14 substrates. (A) Structures (B) Optimal assay conditions for […]
S19) inhibitors (C) Michaelis-Menten (K M) and rate (kcat) constants for KLK substrates

[3] = KLK14 probe optimization series

T2 sequence (P20151 25-261): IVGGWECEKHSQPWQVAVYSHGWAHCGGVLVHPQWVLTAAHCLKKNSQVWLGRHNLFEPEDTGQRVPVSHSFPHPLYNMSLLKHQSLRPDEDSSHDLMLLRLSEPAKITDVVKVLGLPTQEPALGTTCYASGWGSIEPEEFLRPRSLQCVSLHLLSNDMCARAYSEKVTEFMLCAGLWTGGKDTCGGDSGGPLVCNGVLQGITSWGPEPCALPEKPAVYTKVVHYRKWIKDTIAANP

Structure (SMILES)	inhibition of KLK14 (KLK14 [1])	effect on number of migrating cells (LNCaP-K14 cells)	kinact/KI (KLK14 [2]; KLK2 probe optimization series) [M⁻¹ s⁻¹]	selectivity (fold-change) (KLK2; KLK2 probe optimization series, KLK2 over KLK14) [fold]	kinact/KI (KLK2; KLK2 probe optimization series) [M⁻¹ s⁻¹]	selectivity (fold-change) (KLK14 [2]; KLK14 probe optimization series, KLK14 over KLK2) [fold]	kinact/KI (KLK14 [2]; [3]) [M⁻¹ s⁻¹]	fold higher potency toward KLK14 (KLK14 [2]; relative to compound 32) [fold]	kinact/KI (KLK2; [3]) [M⁻¹ s⁻¹]
CCC[C@H](NC(=O)[C@H](CCC(N)=O)NC(=O)[C@H](CC(N)=O)NC(=O)CCCCCNC(=O)CCCC[C@@H]1SC[C@@H]2NC(=O)N[C@@H]21)C(=O)NC(c1ccc(C(N)=O)cc1)P(=O)(Oc1ccccc1)Oc1ccccc1 (some centres unmarked) [compound 20]	no inhibition	no significant effect	–	–	–	–	–	–	–
CC(C)(C)C(NC(=O)CCCCCNC(=O)CCCCC1SCC2NC(=O)NC21)C(=O)NC(CCN)C(=O)NC(Cc1ccc(O)cc1)C(=O)NC(c1ccc(NC(=N)N)cc1)P(=O)(Oc1ccccc1)Oc1ccccc1 (stereo not drawn) [compound 31, Tle-Dab-Tyr-Arg]	–	no significant effect	94 ± 7	33	3080 ± 87	–	–	–	–
CCC(NC(=O)C(CCN)NC(=O)C(Cc1ccc2ccccc2c1)NC(=O)CCCCCNC(=O)CCCCC1SCC2NC(=O)NC21)C(=O)NC(c1ccc(NC(=N)N)cc1)P(=O)(Oc1ccccc1)Oc1ccccc1 (stereo not drawn) [compound 39, 2Nal-Dab-Abu-Arg]	–	nullified	–	–	–	220	44500 ± 1980	80	204 ± 13
